According to patent US7880002B2, “Substituted piperazinyl-pyrrolidine compounds useful as chemokine receptor antagonists” (Millennium Pharmaceuticals, Inc., priority 2004, dated 2011):

Molecular target: T1, CCR1 (Homo sapiens, UniProt P32246)
T1 construct: a monocytic derived cell line that endogenously expresses CCR1; host or cells: THP-1 cells
T1 sequence (P32246 1-355): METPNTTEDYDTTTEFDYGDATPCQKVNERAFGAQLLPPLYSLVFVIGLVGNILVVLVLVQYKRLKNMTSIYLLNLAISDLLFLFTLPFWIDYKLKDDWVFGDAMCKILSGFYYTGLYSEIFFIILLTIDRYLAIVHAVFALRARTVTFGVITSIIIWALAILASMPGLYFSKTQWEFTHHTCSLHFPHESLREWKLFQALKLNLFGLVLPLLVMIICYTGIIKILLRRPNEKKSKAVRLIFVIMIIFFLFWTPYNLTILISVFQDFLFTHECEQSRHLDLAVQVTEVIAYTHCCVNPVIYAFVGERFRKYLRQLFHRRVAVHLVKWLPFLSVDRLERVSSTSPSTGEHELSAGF
Experiment: CCR1 inhibition (THP-1 FLIPR assay / THP-1 whole cell radioligand binding assay; the patent does not say which gave the values)
Format: cell-based
Conditions: threshold list, less than 100 nm; compounds of Table 1; read-out: inhibitory activity
Description: The primary screening assay is a FLIPR® (Fluorometric Imaging Plate Reader, available from Molecular Devices Corporation, Sunnyvale, Calif.) assay using THP-1 cells (ATCC, Catalog No. TIB 202), a monocytic derived cell line that endogenously expresses CCR1.
The cells were resuspended at 1×10^6 cells/ml in dye loading media (growth media (RPMI+10% FBS (Fetal Bovine serum)+5.5×10^−5M 2-mercaptoethanol)+10 mM HEPES (N-2-hydroxyethylpiperazine-N′-2-ethane-sulfonic acid)+2.5 mM probenecid+fluo-3 (1:250)). The cells were incubated for 1 hour at 37° C. and then washed in FLIPR wash buffer (100 mL 10× HBSS (Hanks Buffered Saline Solution) (w/Ca++/Mg++)+20 mL 1M HEPES+1 g BSA+10 mL 250 mM probenecid+water (to make 1 L)) and plated at 50,000 cells/well in black/clear 384 well plates. The plates were transferred to FLIPR where the ability of different concentrations of compounds to inhibit RANTES induced calcium flux was assessed. Inhibition of the CCR1 response was reflected by a decrease of the fluorescence signal relative to the positive controls (RANTES alone).
THP-1 Whole Cell Radioligand Binding Assay
The cells were washed with PBS (phosphate buffered saline) and resuspended in binding buffer (10 mM HEPES pH 7.2, 1× HBSS (w/Ca^2+, Mg^2+) 0.5% BSA, 0.02% Na-azide) at 4×10^6 cells/ml (for 200, 000 cells/well). Cells were incubated with 0.1 to 0.2 nM [^125I]-labeled MIP-1α with or without unlabeled competitor (MIP-1α) or various concentrations of compounds for 60 minutes at room temperature. The assay was terminated by vacuum filtration through glass fiber filters (GF/B, Packard) which were presoaked in 0.3% polyethyleneimine. The filters were washed with wash buffer (10 mM HEPES, pH 7.2, 1 mM CaCl2, 5 mM MgCl2 0.5M NaCl), dried and the amount of bound radioactivity was determined by scintillation counting.

Row | Structure (SMILES) | IC50 [µM]
1 | CNC(=O)c1ccc2nc(C(F)(F)F)nc(N3C[C@@H](O)[C@H](N4CCN(C(=O)c5ccc(Cl)cc5)CC4)C3)c2c1 (stereo in doubt) [Example 198, 4-{3-[4-(4-chlorobenzoyl)piperazin-1-yl]-4-hydroxypyrrolidin-1-yl}-N-methyl-2-(trifluoromethyl)quinazoline-6-carboxamide] | < 0.1
2 | O=C(c1ccc(Cl)cc1)N1CCN([C@H]2CN(c3nc(C(F)(F)F)nc4cc(Cl)ccc34)C[C@@H]2O)CC1 (stereo in doubt) [Example 201, 4-[4-(4-chlorobenzoyl)piperazin-1-yl]-1-[7-chloro-2-(trifluoromethyl)quinazolin-4-yl]pyrrolidin-3-ol] | < 0.1
3 | O=C(c1ccc(Cl)cc1)N1CCN([C@@H]2CN(c3nc(C(F)(F)F)nc4ccc(N5CCNC5=O)cc34)C[C@H]2O)CC1 (stereo in doubt) [Example 202, 1-[4-{3-[4-(4-chlorobenzoyl)piperazin-1-yl]-4-hydroxypyrrolidin-1-yl}-2-(trifluoromethyl)quinazolin-6-yl]imidazolidin-2-one] | < 0.1
4 | N#Cc1ccc2nc(C(F)(F)F)nc(N3C[C@@H](O)[C@H](N4CCN(C(=O)c5ccc(Cl)cc5)CC4)C3)c2c1 (stereo in doubt) [Example 203, 4-{3-[4-(4-chlorobenzoyl)piperazin-1-yl]-4-hydroxypyrrolidin-1-yl}-2-(trifluoromethyl)quinazoline-6-carbonitrile] | < 0.1
5 | O=C(c1ccc(Cl)cc1)N1CCN([C@@H]2CN(c3nc(C(F)(F)F)nc4ccc(-c5nn[nH]n5)cc34)C[C@H]2O)CC1 (stereo in doubt) [Example 204, 4-[4-(4-chlorobenzoyl)piperazin-1-yl]-1-[6-(2H-tetrazol-5-yl)-2-(trifluoromethyl)quinazolin-4-yl]pyrrolidin-3-ol] | < 0.1
6 | O=C(c1ccc(Cl)cc1)N1CCN([C@@H]2CN(c3nccc4ccccc34)C[C@H]2O)CC1 [Example 21, 4-[4-(4-chlorobenzoyl)piperazin-1-yl]-1-isoquinolin-1-ylpyrrolidin-3-ol] | < 0.1
7 | O=C(c1ccc(Cl)cc1)N1CCN([C@H]2CN(c3nccc(C(F)(F)F)n3)C[C@@H]2O)CC1 [Example 68, (3S,4S)-4-[4-(4-chlorobenzoyl)piperazin-1-yl]-1-[4-(trifluoromethyl)pyrimidin-2-yl]pyrrolidin-3-ol] | < 0.1
8 | O=C(c1ccc(Cl)cc1)N1CCN([C@@H]2CN(c3nc(-c4ccccc4)nc4ccccc34)C[C@H]2O)CC1 [Example 101, 4-[4-(4-chlorobenzoyl)piperazin-1-yl]-1-(2-phenylquinazolin-4-yl)pyrrolidin-3-ol] | < 0.1
9 | O[C@@H]1CN(c2nc(C(F)(F)F)cc(C(F)(F)F)n2)C[C@H]1N1CCN(Cc2ccc(Cl)cc2)CC1 [Example 110, 1-[4,6-bis(trifluoromethyl)pyrimidin-2-yl]-4-[4-(4-chlorobenzyl)piperazin-1-yl]pyrrolidin3-ol] | < 0.1
10 | CC(C)(C)c1cc(C(F)(F)F)nc(N2CC(O)C(N3CCN(C(=O)c4ccc(Cl)cc4)CC3)C2)n1 (centres unmarked) [Example 129, 1-[4-tert-butyl-6-(trifluoromethyl)pyrimidin-2-yl]-4-[4-(4-chlorobenzoyl)piperazin-1-yl]pyrrolidin-3-ol] | < 0.1
11 | Cc1nc(C(F)(F)F)nc(N2C[C@H](O)[C@@H](N3CCN(C(=O)c4ccc(Cl)cc4)CC3)C2)c1C [Example 157, (3S,4S)-4-[4-(4-chlorobenzoyl)piperazin-1-yl]-1-[5,6-dimethyl-2-(trifluoromethyl)pyrimidin-4-yl]pyrrolidin-3-ol] | < 0.1
12 | NC(=O)c1ccc2nc(C(F)(F)F)nc(N3C[C@@H](O)[C@H](N4CCN(C(=O)c5ccc(Cl)cc5)CC4)C3)c2c1 [Example 189, 4-{(3R,4R)-3-[4-(4-chlorobenzoyl)piperazin-1-yl]-4-hydroxypyrrolidin-1-yl}-2-(trifluoromethyl)quinazoline-6-carboxamide] | < 0.1

Further lines, results first:

Row | IC50 [µM] | Structure (SMILES)
13 | < 0.1 | CNC(=O)Nc1ccc2nc(C(F)(F)F)nc(N3C[C@H](O)[C@@H](N4CCN(C(=O)c5ccc(Cl)cc5)CC4)C3)c2c1 (stereo in doubt) [Example 196, N-[4-{3-[4-(4-chlorobenzoyl)piperazin-1-yl]-4-hydroxypyrrolidin-1-yl}-2-(trifluoromethyl)quinazolin-6-yl]-N′-methylurea]
14 | < 0.1 | CC(C)(O)c1ccc2nc(C(F)(F)F)nc(N3C[C@@H](O)[C@H](N4CCN(C(=O)c5ccc(Cl)cc5)CC4)C3)c2c1 (stereo in doubt) [Example 199, 4-[4-(4-chlorobenzoyl)piperazin-1-yl]-1-[6-(1-hydroxy-1-methylethyl)-2-(trifluoromethyl)quinazolin-4-yl]pyrrolidin-3-ol]
15 | < 0.1 | O=C(c1ccc(Cl)cc1)N1CCN([C@@H]2CN(c3ccnc4cc(C(F)(F)F)ccc34)C[C@H]2O)CC1 [Example 12, 4-[4-(4-chlorobenzoyl)piperazin-1-yl]-1-[7-(trifluoromethyl)quinolin-4-yl]pyrrolidin-3-ol]
16 | < 0.1 | O[C@@H]1CN(c2ccnc3cc(Cl)ccc23)C[C@H]1N1CCN(Cc2ccc(Cl)cc2)CC1 [Example 61, (3R,4R)-4-[4-(4-chlorobenzyl)piperazin-1-yl]-1-(7-chloroquinolin-4-yl)pyrrolidin-3-ol]
17 | < 0.1 | O=C(c1ccc(Cl)cc1)N1CCN([C@H]2CN(c3cccc(C(F)(F)F)n3)C[C@@H]2O)CC1 [Example 79]
18 | < 0.1 | O=C(c1ccc(Cl)cc1)N1CCN([C@H]2CN(c3ncnc4cc(Cl)ccc34)C[C@@H]2O)CC1 [Example 105, (3S,4S)-4-[4-(4-chlorobenzoyl)piperazin-1-yl]-1-(7-chloroquinazolin-4-yl)pyrrolidin-3-ol]
19 | < 0.1 | O[C@@H]1CN(c2ncnc3cc(Cl)ccc23)C[C@H]1N1CCN(Cc2ccc(Cl)cc2)CC1 [Example 141, (3R,4R)-4-[4-(4-chlorobenzyl)piperazin-1-yl]-1-(7-chloroquinazolin-4-yl)pyrrolidin-3-ol]
20 | < 0.1 | Cc1cc(C(F)(F)F)nc(N2C[C@H](O)[C@@H](N3CCN(C(=O)c4ccc(Cl)cc4)CC3)C2)n1 [Example 150, (3S,4S)-4-[4-(4-chlorobenzoyl)piperazin-1-yl]-1-[4-methyl-6-(trifluoromethyl)pyrimidin-2-yl]pyrrolidin-3-ol]
